The NIST ThermoML archive (doi:10.1021/acs.jced.6b00096)

Tests used:
[1] = xn = mol fraction of the nth substance listed; details: 100 kPa, Liquid; for viscosity: Falling or rolling sphere viscometry; for mass density: Vibrating tube method

Cc1ccccc1 [toluene]
100 kPa, Liquid
Details	mass density, 298.15 K [kg/m3]	mass density, 318.15 K [kg/m3]	viscosity, 298.15 K [mPa·s]	viscosity, 318.15 K [mPa·s]
Falling or rolling sphere viscometry	–	–	0.533	0.447
Vibrating tube method	862.01	843.51	–	–

CC(C)(C)O [2-methylpropan-2-ol] + CCO
[1]
Details	mass density, 298.15 K [kg/m3]	mass density, 318.15 K [kg/m3]	viscosity, 298.15 K [mPa·s]	viscosity, 318.15 K [mPa·s]
x2 = 0.045	781.92	761.37	4.314	1.724
x2 = 0.082	782.51	762.26	4.195	1.721
x2 = 0.1516	–	763.35	–	1.692
x2 = 0.1518	783.11	–	3.939	–
x2 = 0.287	783.69	–	3.395	–
x2 = 0.2872	–	764.69	–	1.577
x2 = 0.4083	–	765.58	–	1.442
x2 = 0.4085	783.95	–	2.86	–
x2 = 0.5174	784.15	766.2	2.384	1.308
x2 = 0.6167	784.31	–	2.026	–
x2 = 0.6168	–	766.59	–	1.188
x2 = 0.707	784.42	–	1.749	–
x2 = 0.7072	–	766.91	–	1.078
x2 = 0.7896	784.55	767.15	1.532	0.983
x2 = 0.8654	784.72	–	1.349	–
x2 = 0.8656	–	767.35	–	0.895
x2 = 0.9355	784.85	767.46	1.205	0.817

CC(C)(C)O [2-methylpropan-2-ol] + Cc1ccccc1
[1]
Details	mass density, 298.15 K [kg/m3]	mass density, 318.15 K [kg/m3]	viscosity, 298.15 K [mPa·s]	viscosity, 318.15 K [mPa·s]
x2 = 0.0822	786.59	765.3	2.579	1.171
x2 = 0.1676	–	771.88	–	0.899
x2 = 0.1678	792.96	–	1.625	–
x2 = 0.2564	799.78	–	1.184	–
x2 = 0.2565	–	778.96	–	0.744
x2 = 0.3488	807.09	–	0.991	–
x2 = 0.3491	–	786.64	–	0.649
x2 = 0.4458	815	–	0.868	–
x2 = 0.4459	–	794.84	–	0.582
x2 = 0.5467	–	803.43	–	0.528
x2 = 0.5468	823.34	–	0.744	–
x2 = 0.6524	–	812.43	–	0.486
x2 = 0.6525	832.08	–	0.624	–
x2 = 0.7621	841.26	–	0.562	–
x2 = 0.7627	–	821.89	–	0.461
x2 = 0.8787	851.02	–	0.561	–
x2 = 0.8788	–	832.02	–	0.454

Cc1ccccc1 [toluene] + CCO
[1]
Details	mass density [kg/m3]	viscosity [mPa·s]
298.15 K, x2 = 0.1003	857.16	–
298.15 K, x2 = 0.1005	–	0.549
298.15 K, x2 = 0.2002	852.38	–
298.15 K, x2 = 0.2013	–	0.558
298.15 K, x2 = 0.3	847.27	–
298.15 K, x2 = 0.3002	–	0.577
298.15 K, x2 = 0.4	841.65	–
298.15 K, x2 = 0.4003	–	0.606
298.15 K, x2 = 0.5001	–	0.644
298.15 K, x2 = 0.5002	835.35	–
298.15 K, x2 = 0.6001	828.22	0.693
298.15 K, x2 = 0.7	819.95	0.754
298.15 K, x2 = 0.8	810.35	0.831
298.15 K, x2 = 0.9	798.87	0.926
318.15 K, x2 = 0.1004	838.1	0.439
318.15 K, x2 = 0.2002	833.2	–
318.15 K, x2 = 0.2004	–	0.442
318.15 K, x2 = 0.2997	–	0.449
318.15 K, x2 = 0.3003	828.01	–
318.15 K, x2 = 0.4003	822.39	–
318.15 K, x2 = 0.4007	–	0.464
318.15 K, x2 = 0.5	816.2	–
318.15 K, x2 = 0.5007	–	0.483
318.15 K, x2 = 0.5998	–	0.508
318.15 K, x2 = 0.6001	809.19	–
318.15 K, x2 = 0.6998	–	0.542
318.15 K, x2 = 0.7001	801.21	–
318.15 K, x2 = 0.7996	791.97	–
318.15 K, x2 = 0.7999	–	0.585
318.15 K, x2 = 0.8998	–	0.641
318.15 K, x2 = 0.9	780.91	–

CCO [ethanol]
100 kPa, Liquid
Details	mass density, 298.15 K [kg/m3]	mass density, 318.15 K [kg/m3]	viscosity, 298.15 K [mPa·s]	viscosity, 318.15 K [mPa·s]
Falling or rolling sphere viscometry	–	–	1.084	0.752
Vibrating tube method	785.01	767.54	–	–

CC(C)(C)O [2-methylpropan-2-ol]
100 kPa
Details	mass density [kg/m3]	viscosity [mPa·s]
298.15 K, Metastable liquid, Falling or rolling sphere viscometry	–	4.426
298.15 K, Metastable liquid, Vibrating tube method	780.99	–
318.15 K, Falling or rolling sphere viscometry, Liquid	–	1.706
318.15 K, Vibrating tube method, Liquid	759.66	–
